We go through 13 molecules from patent US20250382264A1, “HETEROCYCLE-CONTAINING AMINO ACID COMPOUND AND COMPLEX” (AICHI STEEL CORPORATION, priority 2022, published 2025).

System in the first data set: not listed separately
The data set can be described thus: Absorbance of aqueous iron complex solution irradiated with ultraviolet rays (253.7 nm). It counts as physicochemical. As to conditions: aqueous solution of the Fe complex of the named ligand, Fe 100 μM, pH 5.0, ultraviolet 253.7 nm, 10-mm cell. The procedure:
For comparison, absorbance measurement was performed using an aqueous solution of each of an iron complex of ethylenediaminetetraacetic acid (EDTA) (hereinafter, referred to as “Fe-EDTA”), an iron complex of diethylenetriamine-N,N,N',N'',N''-pentaacetic acid (DTPA) (hereinafter, referred to as “Fe-DTPA”), an iron complex of hydroxybenzylethylenediamine (HBED) (hereinafter, referred to as “Fe-HBED”), an iron complex of N,N'-ethylene-bis([…]) (hereinafter, referred to as “Fe-EDDHA”), an iron complex of citric acid, and an iron complex (hereinafter, referred to as “Fe-PDMA”) of a compound represented by the following formula (hereinafter, referred to as “PDMA”). […] Subsequently, a deionized water was added to fill up to 220 mL. This aqueous solution was left to stand at a temperature of 25° C. for 1 hour to yield an aqueous solution of an iron complex having an Fe concentration of 100 μM (5.6 ppm). Thereafter, the absorbance of this aqueous complex solution was measured. […] Subsequently, a deionized water was added to fill up to 220 mL. […] Thereafter, the absorbance of this aqueous complex solution was measured in the same manner as described above (see Table 1). […] Subsequently, about 220 mL of a deionized water was added to the resultant mixture to yield an aqueous complex solution having an Fe concentration of 100 μM (5.6 ppm).
As for `CC(=O)N[C@@H](CCN1CCC[C@H]1C(=O)O)C(=O)O` [Compound V4], the Absorbance is on record as 0.144. For the molecule `O=C([O-])CN(CCN(CC(=O)[O-])CC(=O)[O-])CC(=O)[O-].[Fe+3]` [Fe-EDTA, iron complex of ethylenediaminetetraacetic acid], the Absorbance was found to be 1.452. The molecule `O=C(CO)N[C@@H](CCN1CCC[C@H]1C(=O)O)C(=O)O` [Compound V5] had an Absorbance of 0.350. Take “iron complex of diethylenetriamine-N,N,N′,N″,N″-pentaacetic acid [Fe-DTPA]”: the Absorbance came out at 1.073. The same measure, in the same setting: for `O=C(O)[C@@H](O)CCN1CC[C@H]1C(=O)O` [Compound V9] the value was 0.332.

Regarding `N[C@@H](CCN1CC[C@H]1C(=O)O)C(=O)O` [Compound V8], the Absorbance came out at 0.195.

With `N[C@@H](CCN1CCC[C@H]1C(=O)O)C(=O)O` [Compound V3], the Absorbance came to 0.190. The molecule “iron complex of hydroxybenzylethylenediamine [Fe-HBED]” came in with an Absorbance of 0.914. Same read-out and setting: the figure for `O=C(O)CN[C@@H](CCN1CCC[C@H]1C(=O)O)C(=O)O` [Compound V6] is 0.378; for `O=C(O)[C@@H](O)CCN1CCC[C@H]1C(=O)O` [Compound V2] it is 0.193. In turn, `O=C(O)C(O)CCN[C@@H](CCN1CCC[C@H]1C(=O)O)C(=O)O` (stereo partly shown) [Fe-PDMA] returned an Absorbance of 0.644. Regarding `CN(CCC(=O)O)[C@@H](CCN1CCC[C@H]1C(=O)O)C(=O)O` [Compound V7], the Absorbance was found to be 0.354.

The subject of another data set is corn variety "Launcher 82". The data set can be described thus: Plant cultivation test (1): hydroponic cultivation of corn, leaf color (SPAD value). In kind it is in vivo. The note with it: 3 mL iron material with Fe 100 μM, 3rd day after administration, average of two pots. As for the experimental part: Seeds of corn variety “Launcher 82” were placed on a paper towel wetted with tap water. 8 days after germination, the seedlings were immersed in 45 mL of a hydroponic nutrient solution (a liquid based on the formulation in the Horticultural Experiment Station). 2 days after that, 3 mL of iron materials including various aqueous complex solutions were administered to the seedlings. Then, on the 3rd day after the administration of the iron materials, the leaf color (SPAD value) of corn was measured. This hydroponic cultivation was performed in two pots, and the average value of the SPAD values was calculated. For comparison, an experiment of administering only iron sulfate and an experiment of administering no iron material were also performed.
Turning to `O=S(=O)([O-])[O-].[Fe+2]` [Fe only, iron sulfate], the “SPAD value Average” value is on record as 9.5.
